Reference: PubChem BioAssay (NCI)
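Each compound was tested at five concentrations against cells in 96-well plates for 48 hours. GI50 marks 50% less growth. TGI marks complete inhibition of growth.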

Key:
Test in all cases: NCI tumour cell line growth inhibition, 48 h
[1] = system: M14 melanoma
[2] = system: T-47D breast
[3] = system: SK-MEL-5 melanoma
[4] = system: UACC-257 melanoma
[5] = system: SK-OV-3 ovarian
[6] = system: MDA-MB-231 breast
[7] = system: NCI-H23 lung
[8] = system: UO-31 renal
[9] = system: DU-145 prostate
[10] = system: MALME-3M melanoma
[11] = system: HL-60(TB) leukemia
[12] = system: SR leukemia
[13] = system: SK-MEL-2 melanoma
[14] = system: HCC-2998 colon
[15] = system: KM12 colon
[16] = system: ACHN renal
[17] = system: PC-3 prostate
[18] = system: HCT-15 colon
[19] = system: TK-10 renal
[20] = system: OVCAR-8 ovarian
[21] = system: NCI/ADR-RES ovarian
[22] = system: SNB-75 CNS
[23] = system: SNB-19 CNS
[24] = system: CCRF-CEM leukemia
[25] = system: HT29 colon
[26] = system: RXF 393 renal
[27] = system: SW-620 colon
[28] = system: NCI-H226 lung
[29] = system: SF-268 CNS
[30] = system: EKVX NSCLC
[31] = system: U251 CNS
[32] = system: 786-0 renal
[33] = system: OVCAR-5 ovarian
[34] = system: HOP-92 NSCLC
[35] = system: IGROV1 ovarian
[36] = system: LOX IMVI melanoma
[37] = system: NCI-H460 lung
[38] = system: HS 578T breast
[39] = system: SF-539 CNS
[40] = system: NCI-H522 lung
[41] = system: SN12C renal
[42] = system: BT-549 breast
[43] = system: MOLT-4 leukemia
[44] = system: SF-295 CNS
[45] = system: SK-MEL-28 melanoma
[46] = system: OVCAR-3 ovarian
[47] = system: HOP-62 NSCLC
[48] = system: MCF7 breast
[49] = system: MDA-MB-435
[50] = system: OVCAR-4 ovarian
[51] = system: HCT-116 colon
[52] = system: A549 NSCLC
[53] = system: A498 renal
[54] = system: UACC-62 melanoma

## Cc1c(Br)cccc1NC(=O)c1sc2nc3c(cc2c1N)CN(Cc1ccccc1)CC3
[1]
  GI50: 107 nM
  TGI: 386 nM
[2]
  GI50: 205 nM
  TGI: > 50000 nM
[3]
  GI50: 201 nM
  TGI: 8180 nM
[4]
  GI50: 8920 nM
  TGI: > 50000 nM
[5]
  GI50: 294 nM
  TGI: 22700 nM
[6]
  GI50: 531 nM
  TGI: 38100 nM
[7]
  GI50: 343 nM
  TGI: > 50000 nM
[8]
  GI50: 412 nM
  TGI: > 50000 nM
[9]
  GI50: 168 nM
  TGI: 2990 nM
[10]
  GI50: 256 nM
  TGI: 6040 nM
[11]
  GI50: 161 nM
  TGI: 456 nM
[12]
  GI50: 107 nM
  TGI: > 50000 nM
[13]
  GI50: 231 nM
  TGI: 15100 nM
[14]
  GI50: 1600 nM
  TGI: > 50000 nM
[15]
  GI50: 168 nM
  TGI: 10200 nM
[16]
  GI50: 444 nM
  TGI: 40000 nM
[17]
  GI50: 204 nM
  TGI: 22400 nM
[18]
  GI50: 165 nM
  TGI: > 50000 nM
[19]
  GI50: 1190 nM
  TGI: 16100 nM
[20]
  GI50: 298 nM
  TGI: > 50000 nM
[21]
  GI50: 136 nM
  TGI: 10500 nM
[22]
  GI50: 280 nM
  TGI: 17100 nM
[23]
  GI50: 448 nM
  TGI: > 50000 nM
[24]
  GI50: 182 nM
  TGI: > 50000 nM
[25]
  GI50: 179 nM
  TGI: 5250 nM
[26]
  GI50: 123 nM
  TGI: 402 nM
[27]
  GI50: 164 nM
  TGI: 7150 nM
[28]
  GI50: 1180 nM
  TGI: 18900 nM
[29]
  GI50: 525 nM
  TGI: 27200 nM
[30]
  GI50: 359 nM
  TGI: > 50000 nM
[31]
  GI50: 242 nM
  TGI: 5580 nM
[32]
  GI50: 256 nM
  TGI: 7980 nM
[33]
  GI50: 289 nM
  TGI: > 50000 nM
[34]
  GI50: 509 nM
  TGI: 10700 nM
[35]
  GI50: 470 nM
  TGI: > 50000 nM
[36]
  GI50: 336 nM
  TGI: > 50000 nM
[37]
  GI50: 191 nM
  TGI: 5020 nM
[38]
  GI50: 208 nM
  TGI: 15400 nM
[39]
  GI50: 158 nM
  TGI: 858 nM
[40]
  GI50: 108 nM
  TGI: > 50000 nM
[41]
  GI50: 384 nM
  TGI: > 50000 nM
[42]
  GI50: 708 nM
  TGI: 25300 nM
[43]
  GI50: 409 nM
  TGI: > 50000 nM
[44]
  GI50: 129 nM
  TGI: 9420 nM
[45]
  GI50: 977 nM
  TGI: > 50000 nM
[46]
  GI50: 157 nM
  TGI: 773 nM
[47]
  GI50: 204 nM
  TGI: 4440 nM
[48]
  GI50: 170 nM
  TGI: > 50000 nM
[49]
  GI50: 36.6 nM
  TGI: 141 nM
[50]
  GI50: 523 nM
  TGI: 8890 nM
[51]
  GI50: 182 nM
  TGI: 5580 nM
[52]
  GI50: 491 nM
  TGI: 19600 nM
[53]
  GI50: 186 nM
  TGI: 3890 nM
[54]
  GI50: 372 nM
  TGI: > 50000 nM
